Experimental data from PMC9969396, “Development of Human Carbonic Anhydrase II Heterobifunctional Degraders” (Journal of Medicinal Chemistry, 2023).
Where two headings read alike, the source gives them in different places.

Experiments:
[1] = biological target: T1, hCAII (Homo sapiens, UniProt P00918); test: colorimetric p-nitrophenyl acetate hCAII activity assay; format: biochemical
T1 construct: made in house; host or cells: Escherichia coli BL21(DE3), pACA plasmid (gift from Carol A. Fierke)
Protocol: To verify that the p-sulfamoyl benzamide MBP retained its binding following ligation with the linker and bulky recruiting group moieties, the inhibition activity of each degrader candidate was determined using a colorimetric p-nitrophenol acetate hCAII activity assay.[46] In short, recombinantly expressed hCAII was preincubated with the degrader candidate before the addition of p-nitrophenyl acetate, a substrate that upon enzymatic cleavage leads to acetic acid and p-nitrophenolate.
Recombinant hCAII was expressed and purified according to the protocol reported in the Supporting Information. […] Wells were prepared to a final volume of 100 μL per well, including buffer (50 mM HEPES, pH 8.0), enzyme (hCAII, 40 nM), inhibitor (varying concentrations), and substrate (p-nitrophenyl acetate, 500 μM). Inhibitors and protein were preincubated for 10 min at rt, and the substrate was added to the reaction mixture immediately before reading. […] The rate of absorbance for each replicate was corrected for substrate autohydrolysis and inherent inhibitor absorbance by subtracting the rate of absorbance from a blank sample lacking enzyme but containing the inhibitor and substrate. Samples lacking inhibitor but containing enzyme and substrate were used to define 100% hCAII activity. Samples lacking inhibitor and enzyme were used to define 0% hCAII activity. IC50 was determined using non-linear regression with a variable slope on the GraphPad Prism software.

[2] = biological target: T2, hCAII (Homo sapiens, UniProt P00918+Q96SW2); test: time-course of hCAII abundance in HEK293 cells, western blot; format: cell-based; settings: 50 nM
T2 construct: HEK293 cells, a line known to abundantly express hCAII; endogenous in cells; host or cells: HEK293
Protocol: To determine the efficiency of 11, hCAII abundance was evaluated in HEK293 cells that were dosed with 50 nM of 11 over 48 h. Depletion of hCAII relative to vehicle (DMSO) began within 2 h and reached a maximal effect by 6 h (Figure 5c). Sustained degradation was also observed for the entirety of the 48 h tested. Based on the results of this time-course dosing experiment, it appears that 11 begins degrading hCAII quickly after exposure to the cell and maintains prolonged activity after initial dosing.
After reaching 90% confluency, HEK293 cells were trypsinized, counted, and plated with 2 mL media at 2 × 10^6 cells per well on a tissue-culture-treated, 6-well plate. […] Lysates were thawed on ice, and the total protein concentration was measured using a Pierce bicinchoninic acid protein assay (Thermo Fisher Scientific, 23225). […] The immunoblot was then analyzed using the ImageJ software as an 8-bit image. The brightness and contrast of the image were adjusted, and the integrated density was calculated for each protein band using the gel lane analysis tool. Relative hCAII expression was calculated by normalizing the hCAII/β-actin ratio in compound-treated wells to the hCAII/β-actin ratio in vehicle (DMSO)-treated wells and indicated as “hCAII Abundance (% DMSO)”.

[3] = biological target: T2, hCAII; test: competition / mechanistic experiments on hCAII degradation in HEK293 cells, western blot; format: cell-based; settings: then 50 nM for 6 h
Protocol: Competition experiments were performed to verify that the degradation activity of 11 was the result of a PROTAC-style mechanism requiring concurrent degrader engagement with both hCAII and CRBN.
After reaching 90% confluency, HEK293 cells were trypsinized, counted, and plated with 2 mL media at 2 × 10^6 cells per well on a tissue-culture-treated, 6-well plate. At the appropriate number of hours before reaching ∼90% confluency, cells were treated with DMSO solutions of the appropriate compounds (final concentration 0.5% DMSO per well). Upon reaching 90% confluency, typically 72 h, culture media were removed and the cells were washed with cold Dulbecco’s phosphate-buffered saline (DPBS). Lysis buffer, composed of cell lysis buffer (Cell Signaling Technology, 9803), protease inhibitor cocktail (Cell Signaling Technology, 5872), and 1 mM phenylmethylsulfonylfluoride, was added to each well, and the plates were rocked at 4 °C for 20 min. Cells were then scraped from the bottom of the plates, and the supernatant was collected after spinning down at 14,000g at 4 °C for 10 min and frozen at −80 °C. Lysates were thawed on ice, and the total protein concentration was measured using a Pierce bicinchoninic acid protein assay (Thermo Fisher Scientific, 23225). […] Following heating at 98 °C for 5 min and cooling to room temperature, the prepared samples were electrophoretically separated on a 4–20% TGX gel (Bio-Rad, 4568095) and transferred to a PVDF membrane (Amersham Hybond P 0.45 μm, 106000019) in a tris-glycine transfer buffer (Thermo Fisher Scientific, LC3675) with a 20% final MeOH concentration. […] The immunoblot was then analyzed using the ImageJ software as an 8-bit image. The brightness and contrast of the image were adjusted, and the integrated density was calculated for each protein band using the gel lane analysis tool. Relative hCAII expression was calculated by normalizing the hCAII/β-actin ratio in compound-treated wells to the hCAII/β-actin ratio in vehicle (DMSO)-treated wells and indicated as “hCAII Abundance (% DMSO)”.

[4] = biological target: T2, hCAII; test: nine-point dose response hCAII degradation assay in HEK293 cells, western blot; format: cell-based
Protocol: Three biological replicates of HEK293 cells were dosed in parallel with 4 or 5 at concentrations ranging from 5 pM to 15 μM for 24 h prior to lysis. […] This phenomenon can be attributed to the binary complexes of degrader-POI and degrader-E3 ligase outcompeting the POI-degrader-E3 ligase ternary complex at high degrader concentrations. […] The half-maximal degradation (DC50 value reported as a 95% confidence interval) and maximum percentage of degradation (DMax) of each active degrader were determined using a least squares sigmoidal fitting of the degradation activity of dosing concentrations below the observable “hook effect” (Figure 2B).
Figure 3 Dose-dependent degradation of hCAII by 4 and 5. (A) Western blot images of HEK293 cells dosed for 24 h with degrader 4 (left) or 5 (right) at concentrations of 5 pM to 15 μM. (B) Dose response curves of hCAII abundance as a percent of DMSO vehicle for 4 (left) or 5 (right). Band intensities of blots from three biological replicates were quantified using ImageJ software (Experimental Section). Data were normalized to a vehicle-treated (DMSO) group and plotted as a sigmoidal curve. Nonlinear fitting of log([inhibitor]) vs response (three parameters) was generated for 4 with R^2 = 0.955 and 5 with R^2 = 0.855 in GraphPad Prism. Points marked with an asterisk indicate only two biological replicates. In all other cases, error bars represent the standard deviation of triplicate experiments. Full images of the western blots are provided in the Supporting Information (Figures S1 and S3).
Given the inactivity of 1–3 and increased potency of 4 over 5, a 12-atom linker appeared to be a preferred length for favorable ternary complex formation in the heterobifunctional degraders tested. To further examine the role of linker length and composition, we explored hydrocarbon linkers for their ability to improve degrader lipophilicity and membrane permeability without impacting the favorable ternary complex formation. […] Western blot analysis and quantification of three biological replicates identified the degradation of hCAII at concentrations of 11 as low as 50 pM and achieved near-complete hCAII degradation at concentrations of 5 nM (Figures 5A and S3).
After reaching 90% confluency, HEK293 cells were trypsinized, counted, and plated with 2 mL media at 2 × 10^6 cells per well on a tissue-culture-treated, 6-well plate. At the appropriate number of hours before reaching ∼90% confluency, cells were treated with DMSO solutions of the appropriate compounds (final concentration 0.5% DMSO per well). Upon reaching 90% confluency, typically 72 h, culture media were removed and the cells were washed with cold Dulbecco’s phosphate-buffered saline (DPBS). Lysis buffer, composed of cell lysis buffer (Cell Signaling Technology, 9803), protease inhibitor cocktail (Cell Signaling Technology, 5872), and 1 mM phenylmethylsulfonylfluoride, was added to each well, and the plates were rocked at 4 °C for 20 min. Cells were then scraped from the bottom of the plates, and the supernatant was collected after spinning down at 14,000g at 4 °C for 10 min and frozen at −80 °C. Lysates were thawed on ice, and the total protein concentration was measured using a Pierce bicinchoninic acid protein assay (Thermo Fisher Scientific, 23225). […] Following heating at 98 °C for 5 min and cooling to room temperature, the prepared samples were electrophoretically separated on a 4–20% TGX gel (Bio-Rad, 4568095) and transferred to a PVDF membrane (Amersham Hybond P 0.45 μm, 106000019) in a tris-glycine transfer buffer (Thermo Fisher Scientific, LC3675) with a 20% final MeOH concentration. The membrane was rocked at 4 °C with fluorescent blocking buffer (Thermo Fisher Scientific, 37565) for 1 h and then incubated with primary antibodies (hCAII Rabbit mAb, 1:1000 and β-actin Rabbit pAb, 1:2000 in fluorescent blocking buffer) at 4 °C overnight. […]

[5] = enzyme concentration of 40 nM, read-out: IC50, below the detection limit of the assay
[6] = recombinant hCAII 40 nM, p-nitrophenyl acetate 500 μM, pH 8.0, 95% confidence interval, read-out: IC50 (nM), hCAII inhibition activity (Table S1)
[7] = SMILES csv supplement, read-out: hCAII IC50

NS(=O)(=O)c1ccc(C(=O)NCCCOCCOCCOCCCNC(=O)CC23CC4CC(CC(C4)C2)C3)cc1 [Compound 10, N-(1-((3r,5r,7r)-Adamantan-1-yl)-2-oxo-7,10,13-trioxa-3-azahexadecan-16-yl)-4-sulfamoylbenzamide]
IC50 [1, 5]: ≤ 20 nM | IC50 [1, 6]: ≤ 20 nM

NS(=O)(=O)c1ccc(C(=O)NCCOCCNc2cccc3c2C(=O)N(C2CCC(=O)NC2=O)C3=O)cc1 (stereo not shown) [Compound 1, N-(2-(2-((2-(2,6-Dioxopiperidin-3-yl)-1,3-dioxoisoindolin-4-yl)amino)ethoxy)ethyl)-4-sulfamoylbenzamide]
IC50 [1, 7]: 48 ± 5 nM | IC50 [1, 6]: 48 ± 5 nM

NS(=O)(=O)c1ccc(C(=O)NCCOCCOCCNC(=O)CC23CC4CC(CC(C4)C2)C3)cc1 [Compound 7, N-(2-(2-(2-(2-((3r,5r,7r)-Adamantan-1-yl)acetamido)ethoxy)ethoxy)ethyl)-4-sulfamoylbenzamide]
IC50 [1, 5]: ≤ 20 nM | IC50 [1, 6]: ≤ 20 nM

NS(=O)(=O)c1ccc(C(=O)NCCOCCOCCOCCNc2cccc3c2C(=O)N(C2CCC(=O)NC2=O)C3=O)cc1 (stereo not shown) [Compound 3, N-(2-(2-(2-(2-((2-(2,6-Dioxopiperidin-3-yl)-1,3-dioxoisoindolin-4-yl)amino)ethoxy)ethoxy)ethoxy)ethyl)-4-sulfamoylbenzamide]
IC50 [1, 7]: 41 ± 5 nM | IC50 [1, 6]: 41 ± 5 nM

NS(=O)(=O)c1ccc(C(=O)NCCCCCCCCCCCCNc2cccc3c2C(=O)N(C2CCC(=O)NC2=O)C3=O)cc1 (stereo not shown) [Compound 11, N-(12-((2-(2,6-Dioxopiperidin-3-yl)-1,3-dioxoisoindolin-4-yl)amino)dodecyl)-4-sulfamoylbenzamide]
time to maximal effect [2]: ≤ 6 h | hCAII degradation after MG132 pre-treatment ([3]; HEK293, 1 μM MG-132 for 1 h): complete loss of hCAII degradation activity | hCAII degradation after acetazolamide pre-treatment ([3]; HEK293, 1 h preincubation with 5 μM acetazolamide): no degradation of hCAII | hCAII degradation after lenalidomide pre-treatment ([3]; HEK293, 1 h preincubation with 5 μM lenalidomide): no degradation of hCAII | Dmax ([4]; HEK293, HEK293 cells, 24 h, read-out: DMax (maximum percentage of degradation)): 100% | concentration achieving near-complete hCAII degradation ([4]; HEK293 cells, 24 h): 5 nM | degradation of hCAII at concentrations as low as ([4]; HEK293 cells, 24 h): 50 pM | DC50 ([4]; HEK293 cells, 24 h, 5 pM to 15 μM, 95% confidence interval, read-out: DC50 (half-maximal degradation)): 0.5 ± 0.3 nM | hook effect (attenuation of target degradation at high concentration) ([4]; HEK293 cells, 24 h, doses up to 15 μM): no appreciable “hook effect” | fold increase in activity over 4 ([4]; from DC50 values): 10 fold

COCCNC(=O)c1ccc(S(N)(=O)=O)cc1 [Compound 13, N-(2-Methoxyethyl)-4-sulfamoylbenzamide]
IC50 [1, 7]: 58 ± 8 nM | IC50 [1, 6]: 58 ± 8 nM

NS(=O)(=O)c1ccc(C(=O)NCCOCCOCCOCCNC(=O)CC23CC4CC(CC(C4)C2)C3)cc1 [Compound 8, N-(1-((3r,5r,7r)-Adamantan-1-yl)-2-oxo-6,9,12-trioxa-3-azatetradecan-14-yl)-4-sulfamoylbenzamide]
IC50 [1, 7]: 28 ± 4 nM | IC50 [1, 6]: 28 ± 4 nM

NS(=O)(=O)c1ccc(C(=O)NCCOCCNC(=O)CC23CC4CC(CC(C4)C2)C3)cc1 [Compound 6, N-(2-(2-(2-((3r,5r,7r)-Adamantan-1-yl)acetamido)ethoxy)ethyl)-4-sulfamoylbenzamide]
IC50 [1, 6]: 57 ± 5 nM

NS(=O)(=O)c1ccc(C(=O)NCCCOCCCCOCCCNC(=O)CC23CC4CC(CC(C4)C2)C3)cc1 [Compound 9, N-(3-(4-(3-(2-((3r,5r,7r)-Adamantan-1-yl)acetamido)propoxy)butoxy)propyl)-4-sulfamoylbenzamide]
IC50 [1, 7]: 35 ± 5 nM | IC50 [1, 6]: 35 ± 5 nM
